Experimental data: patent publication US10799540B2, “Faecalibacterium longum and application thereof” (BGI SHENZHEN, priority 2016, dated 2020)
Marks after values point to notes of the source that are not given here.

Experiments:
[1] = test system: T2D model mice; assay: Body weight change of T2D model mice treated by gavage for 2 months; type: in vivo, C57bL/6 mice; conditions: intragastric treatment
[2] = test system: T2D model mice; assay: Fasting blood glucose (FBG) in T2D model mice; type: in vivo, C57bL/6 mice
[3] = test system: T2D model mice; assay: Glucose tolerance (OGTT) in T2D model mice; type: in vivo, C57bL/6 mice; conditions: before sacrifice
[4] = test system: T2D model mice; assay: Serum blood lipids in T2D model mice at end of experiment; conditions: after 2 months of treatment

CN(C)C(=N)N=C(N)N [Metformin, metformin]
body weight ([1]; 1 week): 21.54 g
body weight ([1]; 3 weeks): 23.42 g
body weight ([1]; 5 weeks): 25.23 g
body weight ([1]; 7 weeks): 26.6 g
body weight ([1]; 9 weeks): 27.49* g
fasting blood glucose ([2]; week five): 14.6 mmol/L
fasting blood glucose ([2]; week nine): 9.8** mmol/L
fasting blood glucose ([2]; week one): 16.7 mmol/L
fasting blood glucose ([2]; week seven): 12.1* mmol/L
fasting blood glucose ([2]; week three): 15.8 mmol/L
blood glucose in glucose tolerance test (OGTT) ([3]; 0 min after glucose gavage): 9.2 mmol/L
blood glucose in glucose tolerance test (OGTT) ([3]; 30 min after glucose gavage): 19.5 mmol/L
blood glucose in glucose tolerance test (OGTT) ([3]; 60 min after glucose gavage): 16.1 mmol/L
blood glucose in glucose tolerance test (OGTT) ([3]; 90 min after glucose gavage): 10.9* mmol/L
blood glucose in glucose tolerance test (OGTT) ([3]; 120 min after glucose gavage): 10.1* mmol/L
blood glucose in glucose tolerance test (OGTT) ([3]; 120 min after glucose gavage, listed as metformin): 9.8 mmol/L
HDLC (high-density lipoprotein) [4]: 3.023* mmol/L
LDLC (low density lipoprotein) [4]: 1.533* mmol/L
TC (total cholesterol) [4]: 5.923 mmol/L
TG (triglyceride) [4]: 1.565 mmol/L
